Measured values from ChEMBL document CHEMBL1124045, “Synthesis and antiviral evaluation of carbocyclic analogues of 2'-azido- and 2'-amino-2'-deoxycytidine” (1988).
The source made the active and inactive calls. The rule behind the calls is not given here.

Assays:
Human alphaherpesvirus 1 [1] = assay: Antiviral activity in vitro against Herpes simplex virus type 1 (HSV-1); NA is not active uM; format: functional, organism-based
Human alphaherpesvirus 1 [2] = assay: Antiviral activity in vitro against Herpes simplex virus type 1 (HSV-1); format: functional; settings: read-out: ED50 (the source's name)

SMILES | ED50 (Human alphaherpesvirus 1 [1]) | EC50 (Human alphaherpesvirus 1 [2])
[N-]=[N+]=N[C@@H]1C(n2ccc(N)nc2=O)CC(CO)[C@@H]1O (some centres not stated) | inactive | –
Nc1ccn(C2CC(CO)[C@H](O)[C@@H]2N)c(=O)n1 (some centres not stated) | – | 50 µM
